The subject of this data set is CCRIS mutagenicity, Ames/micronucleus/aberration tests. Kind of data set: CCRIS mutagenicity studies. To be noted: Test System: AMES SALMONELLA TYPHIMURIUM
The mark [1] stands for this setting: Strain/Indicator: TA100, Metabolic Activation: NONE, Method: PREINCUBATION
The mark [2] stands for this setting: Strain/Indicator: TA98, Metabolic Activation: NONE, Method: STANDARD PLATE.
The mark [3] stands for this setting: Strain/Indicator: TA98, Metabolic Activation: RAT, LIVER, S-9, PHENOBARBITAL, Method: STANDARD PLATE.
[4] abbreviates: Strain/Indicator: TA100, Metabolic Activation: NONE, Method: STANDARD PLATE.
Setting [5] is: Strain/Indicator: TA100, Metabolic Activation: RAT, LIVER, S-9, PHENOBARBITAL, Method: STANDARD PLATE.
Where [6] appears, read: Strain/Indicator: TA98, Metabolic Activation: NONE, Method: PREINCUBATION

The source made the active and inactive calls. How the calls were made is not given here.

Take `C/C=C1/C[C@@H](C)[C@](O)(CO)C(=O)OCC2=CCN3CC[C@@H](OC1=O)[C@@H]23`: the mutagenic call (Strain/Indicator: TA97A, Metabolic Activation: RAT, LIVER, S-9, SODIUM PHENOBARBITAL AND BETA-NAPHTHOFLAVONE, Method: PREINCUBATION) was “inactive; negative”; the mutagenic call (Strain/Indicator: TA97A, Metabolic Activation: RAT, LIVER, S-9, SODIUM PHENOBARBITAL AND BETA-NAPHTHOFLAVONE, Method: STANDARD PLATE) is “inactive; negative”; the mutagenic call (Strain/Indicator: TA98, Metabolic Activation: RAT, LIVER, S-9, SODIUM PHENOBARBITAL AND BETA-NAPHTHOFLAVONE, Method: PREINCUBATION) is “inactive; negative”; the mutagenic call (Strain/Indicator: TA98, Metabolic Activation: RAT, LIVER, S-9, SODIUM PHENOBARBITAL AND BETA-NAPHTHOFLAVONE, Method: STANDARD PLATE) is “inactive; negative”; the mutagenic call (Strain/Indicator: TA100, Metabolic Activation: RAT, LIVER, S-9, SODIUM PHENOBARBITAL AND BETA-NAPHTHOFLAVONE, Method: PREINCUBATION) was “inactive; negative”; the mutagenic call (Strain/Indicator: TA100, Metabolic Activation: RAT, LIVER, S-9, SODIUM PHENOBARBITAL AND BETA-NAPHTHOFLAVONE, Method: STANDARD PLATE) was “inactive; negative”. Moreover, the mutagenic call is “inactive; negative” (Strain/Indicator: TA1535, Metabolic Activation: RAT, LIVER, S-9, SODIUM PHENOBARBITAL AND BETA-NAPHTHOFLAVONE, Method: PREINCUBATION); “inactive; negative” (Strain/Indicator: TA1535, Metabolic Activation: RAT, LIVER, S-9, SODIUM PHENOBARBITAL AND BETA-NAPHTHOFLAVONE, Method: STANDARD PLATE); “inactive; negative” (Strain/Indicator: TA1538, Metabolic Activation: RAT, LIVER, S-9, SODIUM PHENOBARBITAL AND BETA-NAPHTHOFLAVONE, Method: PREINCUBATION); “inactive; negative” (Strain/Indicator: TA1538, Metabolic Activation: RAT, LIVER, S-9, SODIUM PHENOBARBITAL AND BETA-NAPHTHOFLAVONE, Method: STANDARD PLATE).
For `Nc1nc2c([nH]c(=O)n2[C@@H]2O[C@H](CO)[C@@H](O)[C@H]2O)c(=O)[nH]1`, the mutagenic call under setting [1] was “inactive; negative”.
On to `N=C(N)c1cc2ccc(Br)cc2[nH]1`, for which the mutagenic call by setting is: under setting [2], “inactive; negative”; under setting [3], “inactive; negative”; under setting [4], “inactive; negative”; under setting [5], “inactive; negative”.
As for `COC(=O)C(=Cc1ccc([N+](=O)[O-])o1)[N+](=O)[O-]`, the mutagenic call under setting [6] is “active; positive”.
Turning to `O=C/C(=C(/Cl)C(=O)O)C(Cl)Cl`, the mutagenic call by setting is: (Strain/Indicator: TA97, Metabolic Activation: NONE, Method: STANDARD PLATE) “inactive; negative”; (Strain/Indicator: TA97, Metabolic Activation: RAT, LIVER, S-9, PHENOBARBITAL, Method: STANDARD PLATE) “inactive; negative”; under setting [6], “active; positive”; under setting [2], “active; positive”; under setting [3], “inactive; negative”; under setting [1], “active; positive”. Further, the mutagenic call by setting is: under setting [4], “active; positive”; under setting [5], “inactive; negative”; (Strain/Indicator: TA104, Metabolic Activation: NONE, Method: PREINCUBATION) “active; positive”.
Turning to `CCCC(=O)OCC`, the mutagenic call runs as follows: (Strain/Indicator: TA97, Metabolic Activation: NONE, Method: PREINCUBATION) “inactive; negative”; (Strain/Indicator: TA97, Metabolic Activation: RAT, LIVER, S-9, AROCLOR 1254, Method: PREINCUBATION) “inactive; negative”; (Strain/Indicator: TA102, Metabolic Activation: NONE, Method: PREINCUBATION) “inactive; negative”; (Strain/Indicator: TA102, Metabolic Activation: RAT, LIVER, S-9, AROCLOR 1254, Method: PREINCUBATION) “inactive; negative”.

The record behind these values is PubChem BioAssay AID1259407 (Chemical Carcinogenesis Research Information System (CCRIS), 2018).
